Results published in patent publication US7745574B2, “Compounds that regulate apoptosis” (The Burnham Institute, priority 2005, dated 2010).
Where a SMILES comes first, the peptide text is derived from it. Bridges are numbered along the chain shown (N, C = ends). [ ]: non-standard residue; d: D form. The star is where a group is joined. FITC = O=C1OC2(c3ccc(O)cc3Oc3cc(O)ccc32)c2ccc(NC(=S)*)cc21; Ahx = NCCCCCC(=O)O

How the values were obtained:
Bcl-2 [1] = target: T1, Bcl-2 (Homo sapiens, UniProt P10415); test: FP competition assay on Bcl-2; type: binding
Protocol: (§1) Fluorescence polarization (FP) assays. GST-Bcl-2, GST-Bcl-XL, or GST protein was briefly incubated with FITC-conjugated peptide with or without competitors in Greiner Fluotrac 600 96-well microplates. Fluorescence polarization was recorded using an Analyst HT 96-384 microplate reader (Molecular Devices, Sunnyvale, Calif.) with excitation wavelength set at 485 nm and dynamic polarizer for emission at 530 nm.
Target sequence in this assay (P10415 whole entry): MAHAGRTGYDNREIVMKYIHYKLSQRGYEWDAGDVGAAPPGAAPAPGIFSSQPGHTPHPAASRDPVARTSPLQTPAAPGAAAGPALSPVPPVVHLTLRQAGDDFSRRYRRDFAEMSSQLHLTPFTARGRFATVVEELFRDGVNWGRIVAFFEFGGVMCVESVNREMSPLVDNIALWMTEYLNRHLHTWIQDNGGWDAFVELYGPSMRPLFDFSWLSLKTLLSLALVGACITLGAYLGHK

Bcl-XL = Bcl-XL (Homo sapiens, UniProt Q07817); test: Circular dichroism (CD) spectroscopy, Bcl-XL; type: binding
Chain of Bcl-XL (Q07817 whole entry, species assumed): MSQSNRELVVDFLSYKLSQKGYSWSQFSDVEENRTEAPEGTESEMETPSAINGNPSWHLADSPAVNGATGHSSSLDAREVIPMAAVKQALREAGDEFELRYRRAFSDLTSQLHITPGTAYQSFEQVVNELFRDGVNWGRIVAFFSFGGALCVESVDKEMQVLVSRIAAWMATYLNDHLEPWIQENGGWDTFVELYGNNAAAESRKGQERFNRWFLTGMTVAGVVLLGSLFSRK
Protocol: (§2) Circular dichroism (CD) spectroscopy. Stock solutions of 3 mM peptide in 30% acetonitrile/water were added to 0.5 mL of 2 μM purified GST-proteins in PBS, pH 7.6. CD spectra were obtained in a 0.2 cm pathlength cell at 20° C. using an AVIV 62 DS spectropolarimeter for a wavelength range from 200 to 260 nm with a step size of 1 nm averaged for 5 sec. Three spectra were corrected for background and averaged for each sample. The Kd was determined using nonlinear regression analysis for a one-site-binding model (χ2>0.98). Stoichiometry was determined from a […] (Jones, G. et al. 2002 Tet. Let. 43 :6079-6082).

GST-Bcl-2 [2] = target: T2, GST-Bcl-2 (Homo sapiens, UniProt P10415); test: Circular dichroism (CD) spectroscopy, GST-Bcl-2; type: binding
T2 construct: made in house
T2 sequence (P10415 whole entry): as the sequence (P10415 whole entry) above
Protocol: as §2

GST [3] = target: T3, GST (Schistosoma japonicum, UniProt P08515); test: Circular dichroism (CD) spectroscopy, GST; type: binding
T3 sequence (P08515 whole entry): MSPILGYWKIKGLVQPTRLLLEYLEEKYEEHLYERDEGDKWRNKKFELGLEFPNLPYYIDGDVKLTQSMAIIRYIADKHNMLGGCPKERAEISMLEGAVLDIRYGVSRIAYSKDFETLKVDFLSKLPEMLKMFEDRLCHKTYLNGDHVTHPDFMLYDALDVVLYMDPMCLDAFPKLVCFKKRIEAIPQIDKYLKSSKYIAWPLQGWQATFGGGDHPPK
Protocol: as §2

Jurkat or CEM cells = test: Apoptosis in Jurkat or CEM cells stably expressing Bcl-2; type: cell-based
Protocol: Cell culture. H460 lung cancer cells were maintained in RPMI 1640 medium supplemented with 10% fetal bovine serum (FBS). HEK293T embryonic kidney cells were grown in DME medium supplemented with 10% FBS. Jurkat and Jurkat cells stably expressing Bcl-2 were kindly provided by Dr. John Reed, and they were maintained in RPMI1640 medium.

H460 lung cancer cells = test: Apoptosis in H460 lung cancer cells; type: cell-based
Bcl-2 [4] = target: T1, Bcl-2; test: Binding to Bcl-2, method not stated; parameters: precipitated endogenous Bcl-2 in cells treated with L-NuBCP-9-r8 or D-NuBCP-9-r8; endogenous in cells
Target sequence in this assay (P10415 whole entry, species assumed): as the sequence (P10415 whole entry) above

GST-Bcl-XL = GST-Bcl-XL (Homo sapiens, UniProt Q07817); test: Fluorescence polarization (FP) assay, GST-Bcl-XL; type: binding
Chain of GST-Bcl-XL (Q07817 whole entry, species assumed): as the sequence (Q07817 whole entry, species assumed) above
Protocol: as §1

GST [5] = target: T3, GST; test: Fluorescence polarization (FP) assay, GST; type: binding
Protocol: as §1

GST-Bcl-2 [6] = target: T2, GST-Bcl-2; test: Fluorescence polarization (FP) assay, GST-Bcl-2; type: binding
Protocol: as §1

[7] = tested on: ZR-75-1 breast cancer cells; test: Apoptosis in ZR-75-1 breast cancer cells; type: cell-based; settings: <10 μM peptide
Protocol: (§3) Apoptosis assays—For nuclear morphological change analysis, cells were trypsinized, washed with PBS, fixed with 3.7% paraformaldehyde, and stained with DAPI (4,6-diamidino-2-phenylindole) (50 μg/ml) to visualize the nuclei by UV-microscopy. The percentages of apoptotic cells were determined by counting 300 GFP-positive cells, scoring cells having nuclear fragmentation and/or chromatin condensation.

[8] = tested on: normal primary mammary epithelial cells; test: Apoptosis in normal primary mammary epithelial cells; type: cell-based
Protocol: as §3

[9] = tested on: various cancer cell lines; test: Apoptosis in various cancer cell lines; type: cell-based
Protocol: as §3

Bcl-2 [10] = target: T1, Bcl-2; test: Co-immunoprecipitation with Bcl-2 in HEK293T cells; type: binding; parameters: expressed in transfected cells; host or cells: HEK293T
Protocol: Nur77 peptide binds anti-apoptotic Bcl-2 family members. Nur77-peptide binds Bcl-B, Bfl-1, and Bcl-2, but not Mcl-1 and Bcl-xL. […] The expression vector for the GFP-Nur77/489-497 fusion was transfected into HEK293T cells together with or without the indicated expression vector for myc-tagged Bcl-2 family member. Cell lysates were prepared and analyzed for interaction of Nur77/489-497 with Bcl-2 family members by co-immunoprecipitation assay using anti-Myc antibody. Immunoprecipitates were then separated on SDS/PAGE and immunoblotted using anti-GFP antibody. […] Nur77/Bcl-2 interaction assays—Reporter gene assays using NurRE-tk-CAT in CV-1 cells, and GST pull-down assay were described previously (Li, et al. 2000 Science 289:1159-1164). For the mammalian two-hybrid assays, CV-1 cells were co-transfected with pcDNA-Gal4TAD-Nur77 or pcDNA-Gal4TAD-Nur77/ΔDBD and pcDNA-Gal4 DBD-Bcl-2/ΔTM along with a luciferase reporter gene driven by four copies of the Gal-4-binding site. The cells were harvested and reporter gene activity was measured. For Co-IP assays, HEK293T cells were transiently transfected with various expression plasmids using a modified calcium phosphate precipitation method (Wu et al, 1997) in the presence of caspase inhibitors (zVAD-fmk) to prevent degradation of Nur77 protein due to apoptosis. Cells were suspended in lysis buffer (50 mM Tris-HCl, PH7.4; 150 mM NaCl; 20 mM EDTA; 1% NP-40; 1 mM PMSF; 50 μg/ml Leupeptin; […]; 0.1 mM Na3VO4; and 1 mM DTT). Cells extracts were cleared by incubation with the Protein A/G plus Agarose beads (Santa Cruz) and then incubated with appropriate antibody and 30 μl of Protein A or G plus Agarose beads overnight at 4° C. […] Immunoreactive products were detected by chemiluminescence with an enhanced chemiluminescence system (ECL) (Amersham).
Target sequence in this assay (P10415 whole entry): as the sequence (P10415 whole entry) above

Bcl-2 [11] = target: T1, Bcl-2; test: Immunoprecipitation of endogenous Bcl-2 by anti-Bcl-2/BH3 antibody in treated cells; type: cell-based; parameters: precipitated endogenous Bcl-2 in cells treated with L-NuBCP-9-r8 or D-NuBCP-9-r8; endogenous in cells
Target sequence in this assay (P10415 whole entry, species assumed): as the sequence (P10415 whole entry) above

Bcl-2 [12] = target: T1, Bcl-2; test: Bcl-2 conformational change, anti-Bcl-2/BH3 antibody staining of HEK293T cells transfected with Bcl-2; type: cell-based; parameters: expressed in transfected cells; host or cells: HEK293T; settings: flow cytometry
Protocol: Such a Bcl-2 conformation is recognized by an anti-Bcl-2 antibody raised against the Bcl-2 BH3 domain. To determine whether NuBCP-9 induced a Bcl-2 conformational change, flow cytometric assays were conducted which HEK293T cells transfected with Bcl-2 were exposed to NuBCPs and subsequently stained with the anti-Bcl-2/BH3 antibody.
Target sequence in this assay (P10415 whole entry): as above

CN(C)CC[C@H](CSc1ccccc1)Nc1ccc(S(=O)(=O)NC(=O)c2ccc(N3CCN(Cc4ccccc4-c4ccc(Cl)cc4)CC3)cc2)cc1[N+](=O)[O-] [ABT-737, reference compound]
competition for binding of FITC-L-NuBCP-9-r8 or FITC-D-NuBCP-9-r8 to Bcl-2 (Bcl-2 [1]): failure

CC(=O)N[C@@H](Cc1ccccc1)C(=O)N[C@@H](CO)C(=O)N[C@@H](CCCNC(=N)N)C(=O)N[C@@H](CO)C(=O)N[C@@H](CC(C)C)C(=O)N[C@@H](Cc1c[nH]cn1)C(=O)N[C@@H](CO)C(=O)N[C@@H](CC(C)C)C(=O)N[C@@H](CC(C)C)C(N)=O [NuBCP-9, FSRSLHSLL] (Ac-FSRSLHSLL-NH2)
effect on CD spectra for Bcl-XL (Bcl-XL): no effect | Kd (GST-Bcl-2 [2]): 2100 ± 200 nM | effect on CD spectra for GST (GST [3]): no effect | competition for binding of FITC-L-NuBCP-9-r8 or FITC-D-NuBCP-9-r8 to Bcl-2 (Bcl-2 [1]): competed

CN[C@@H]1C[C@H]2O[C@@](C)([C@@H]1OC)n1c3ccccc3c3c4c(c5c6ccccc6n2c5c31)C(=O)NC4 [staurosporine]
effect of stable expression of Bcl-2 on induced apoptosis/cell death (Jurkat or CEM cells): attenuated

Bad BH3 peptide-CC-Ant: Bad BH3 peptide, Ser replaced with Ala, disulfide-linked to Ant (Ac-NLWAAQRYGRELRRMADEFVDAFKKCCRQIKIWFQNRRMKWKK-NH2; disulfide 26-27; also: Bad BH3 peptide and Ant are two peptides joined by C26-C27 disulfide, no peptide bond)
effect of stable expression of Bcl-2 on induced apoptosis/cell death (Jurkat or CEM cells): attenuated

D-Bad BH3 peptide-CC-Ant: D-enantiomer of Bad BH3 peptide, disulfide-linked to Ant (Ac-NLWAAQRYGRELRRMADEFVDAFKKCCRQIKIWFQNRRMKWKK-NH2; disulfide 26-27; not fully specified (some residues); also: D-amino acids, extent within chain not given here) [reference compound]
apoptotic effect (H460 lung cancer cells; H460 cells, peptides conjugated with CPP, 10 μM): not apoptotic | binding to Bcl-2 (Bcl-2 [4]): did not bind

FITC-NuBCP-9-r8: FITC-conjugated NuBCP-9-r8 peptide for FP assays ({FITC}-FSRSLHSLLG[Ahx][dR][dR][dR][dR][dR][dR][dR][dR]-NH2)
FP of FITC-peptide induced by GST-Bcl-XL (GST-Bcl-XL): not | FP of FITC-peptide induced by GST (GST [5]): not | FP of FITC-peptide induced by GST-Bcl-2 (GST-Bcl-2 [6]): concentration-dependent FP

FITC-NuBCP-9/AA-r8: FITC-conjugated NuBCP-9/AA-r8 peptide ({FITC}-ASRSLHSLAG[Ahx][dR][dR][dR][dR][dR][dR][dR][dR]-NH2)
FP of FITC-peptide induced by GST-Bcl-2 (GST-Bcl-2 [6]): little affected

NuBCP-9/AA: unconjugated NuBCP-9 with Ala substituted for the terminal amino acids (Ac-ASRSLHSLAG[Ahx][dR][dR][dR][dR][dR][dR][dR][dR]-NH2; SMILES CC(=O)N[C@@H](C)C(=O)N[C@@H](CO)C(=O)N[C@@H](CCCNC(=N)N)C(=O)N[C@@H](CO)C(=O)N[C@@H](CC(C)C)C(=O)N[C@@H](Cc1c[nH]cn1)C(=O)N[C@@H](CO)C(=O)N[C@@H](CC(C)C)C(=O)N[C@@H](C)C(=O)NCC(=O)NCCCCCC(=O)N[C@H](CCCNC(=N)N)C(=O)N[C@H](CCCNC(=N)N)C(=O)N[C@H](CCCNC(=N)N)C(=O)N[C@H](CCCNC(=N)N)C(=O)N[C@H](CCCNC(=N)N)C(=O)N[C@H](CCCNC(=N)N)C(=O)N[C@H](CCCNC(=N)N)C(=O)N[C@H](CCCNC(=N)N)C(N)=O)
effect on CD spectra for Bcl-XL (Bcl-XL): no effect | changes in GST-Bcl-2 protein CD spectra (GST-Bcl-2 [2]; peptide 30 μM, GST-Bcl-2 2 μM): not | effect on CD spectra for GST (GST [3]): no effect | competition for binding of FITC-L-NuBCP-9-r8 or FITC-D-NuBCP-9-r8 to Bcl-2 (Bcl-2 [1]): did not

acetyl---GDWIDSILAFSRSLHSLLVDKKC-X-rrrrrrrr (Ac-GDWIDSILAFSRSLHSLLVDKKC[Ahx][dR][dR][dR][dR][dR][dR][dR][dR]-NH2; also: Cys thiol joined to chloroacetyl-Ahx by thioether) [NuBCP-20-r8]
apoptotic potency compared with BH3 peptides derived from t-Bid (H460 lung cancer cells): more potent | apoptosis [7]: > 80% | apoptosis [8]: resistant | apoptotic effects [9]: potent apoptotic effects | interaction with Bcl-2 by co-immunoprecipitation (Bcl-2 [10]): binding

t-Bid BH3 peptide-r8: BH3 peptide derived from pro-apoptotic Bcl-2 family member t-Bid, conjugated with r8 (Ac-EDIIRNIARHLAQVGDSMDRC[Ahx][dR][dR][dR][dR][dR][dR][dR][dR]-NH2; also: Cys thiol joined to chloroacetyl-Ahx by thioether) [reference compound]
precipitation of endogenous Bcl-2 by anti-Bcl-2/BH3 antibody (Bcl-2 [11]): not | Bcl-2 immunofluorescence by anti-Bcl-2/BH3 antibody (Bcl-2 [12]): did not show any Bcl-2 immunofluorescence
